Measured values: patent publication US20240107999A1, “ANTIBACTERIAL COMPOSITION” (LG CHEM, LTD., priority 2021, published 2024)

Assays:
P. mirabilis (ATCC29906) [1] = assay: Antibacterial strength (bacteriostatic reduction rate) by Methods 1 to 4, broth culture absorbance at 600 nm; assay type: cell-based; conditions: Proteus mirabilis, 16 hours, 35° C.; for inhibition of growth at 200 µg/mL: amount of antibacterial composition added 0.005 g in 25 ml broth, 3,000 CFU/ml, read-out: Antibacterial strength (%) Method 2; for inhibition of growth at 400 µg/mL: amount of antibacterial composition added 0.01 g in 25 ml broth, 3,000 CFU/ml, read-out: Antibacterial strength (%) Method 4; for inhibition of growth at 600 µg/mL: amount of antibacterial composition added 0.015 g in 25 ml broth, 3,000 CFU/ml, read-out: Antibacterial strength (%) Method 1; for inhibition of growth at 800 µg/mL: amount of antibacterial composition added 0.02 g in 25 ml broth, 3,000 CFU/ml, read-out: Antibacterial strength (%) Method 3
Protocol: (§1) After 25 ml of a broth-type medium (Nutrient broth, BD DIFCO., 8 g/L) inoculated with 3,000 CFU/ml bacteria is put into a 50 mL conical tube, 0.015 g of the antibacterial composition is added thereto and suspended (by vortexing), a sufficiently mixed solution is incubated for 16 hours in a shaking water bath maintained at 35° C.
(§2) After the incubated solution was diluted to ⅕ using a 1×PBS buffer solution, absorbance (λ=600 nm) was measured using a UV/Vis spectrophotometer, and the antibacterial strength, which is a bacteriostatic reduction rate, is calculated by the following equation by comparing the measured absorbance with a solution incubated without the addition of the antibacterial composition.
(§3) Antibacterial strength(%)=(1−Asample/AReference)×100 • Asample=Absorbance of medium solution incubated by adding antibacterial composition • AReference=Absorbance of medium solution incubated without addition of antibacterial composition
(§4) This method is the same as Method 1, except that 0.005 g of the antibacterial composition is added instead of 0.015 g of the antibacterial composition.
(§5) This method is the same as Method 1, except that 0.02 g of the antibacterial composition is added instead of 0.015 g of the antibacterial composition.
(§6) This method is the same as Method 1, except that 0.01 g of the antibacterial composition is added instead of 0.015 g of the antibacterial composition.
The antibacterial strength of Monomers 1 to 10 and Comparative Monomers 1 and 2 by Methods 1 to 4 was measured, and is shown in the following Table 1. In this case, the P. mirabilis (ATCC29906) bacteria were used.

P. mirabilis (ATCC29906) [2] = assay: Time at which 99.9% of the antibacterial strength is confirmed (Methods 1 to 4); assay type: cell-based, Proteus mirabilis; conditions: for Time at which 99.9% of the antibacterial strength is confirmed, Method 2: amount of antibacterial composition added 0.005 g; for Time at which 99.9% of the antibacterial strength is confirmed, Method 4: amount of antibacterial composition added 0.01 g; for Time at which 99.9% of the antibacterial strength is confirmed, Method 1: amount of antibacterial composition added 0.015 g; for Time at which 99.9% of the antibacterial strength is confirmed, Method 3: amount of antibacterial composition added 0.02 g
Protocol: as §1, §2, §3, §4, §5, §6
The time at which 99.9% of the antibacterial strength of Monomers 1 to 10 and Comparative Monomers 1 and 2 is confirmed is shown in the following Table 2.

[3] = Acute oral toxicity dose LD50 by 3T3 Neutral Red Uptake (NRU) assay (OECD Guidance Document No 129); assay type: cell-based; conditions: mouse, 3T3 cells, po, calculated from 3T3 NRU assay
Protocol: (§7) The acute oral toxicity dose LD50 and acute percutaneous toxicity dose LD50 were measured by 3T3 Neutral Red Uptake (NRU) assay (OECD Guidance Document No 129). Specifically, the acute oral toxicity dose LD50 and acute percutaneous toxicity dose LD50 can be calculated by the following method: […]

[4] = Acute percutaneous toxicity dose LD50 by 3T3 Neutral Red Uptake (NRU) assay (OECD Guidance Document No 129); assay type: cell-based; conditions: mouse, 3T3 cells, other: percutaneous, calculated from 3T3 NRU assay
Protocol: as §7

3T3 = assay: Acute oral toxicity dose LD50 by 3T3 Neutral Red Uptake (NRU) assay (OECD Guidance Document No 129); assay type: cell-based; conditions: calculated from 3T3 NRU assay
Protocol: as §7

## C=C(C)C(=O)OCC[N+](CCCC)(CCCCCCCCCC)CCCCCCCCCC [Monomer 8]
P. mirabilis (ATCC29906) [1]
  inhibition of growth at 200 µg/mL: 99.9%
  inhibition of growth at 400 µg/mL: 99.9%
  inhibition of growth at 600 µg/mL: 99.9%
  inhibition of growth at 800 µg/mL: 99.9%
P. mirabilis (ATCC29906) [2]
  Time at which 99.9% of the antibacterial strength is confirmed, Method 2: Within 1 hour
  Time at which 99.9% of the antibacterial strength is confirmed, Method 4: Within 1 hour
  Time at which 99.9% of the antibacterial strength is confirmed, Method 1: Within 1 hour
  Time at which 99.9% of the antibacterial strength is confirmed, Method 3: Within 1 hour
[3]
  LD50: 869 mg/kg
[4]
  LD50: ≥ 2000 mg/kg

## C=CC(=O)OCCCC[N+](CCCCCCCC)(CCCCCCCC)CCCCCCCC [Monomer 10]
P. mirabilis (ATCC29906) [1]
  inhibition of growth at 200 µg/mL: 99.9%
  inhibition of growth at 400 µg/mL: 99.9%
  inhibition of growth at 600 µg/mL: 99.9%
  inhibition of growth at 800 µg/mL: 99.9%
P. mirabilis (ATCC29906) [2]
  Time at which 99.9% of the antibacterial strength is confirmed, Method 2: Within 1 hour
  Time at which 99.9% of the antibacterial strength is confirmed, Method 4: Within 1 hour
  Time at which 99.9% of the antibacterial strength is confirmed, Method 1: Within 1 hour
  Time at which 99.9% of the antibacterial strength is confirmed, Method 3: Within 1 hour
[3]
  LD50: ≥ 1000 mg/kg
3T3
  Acute oral toxicity dose (mg/Kg) LD50: 1,242 mg/Kg
[4]
  LD50: ≥ 2000 mg/kg

## C=CC(=O)OCC[N+](CCCC)(CCCC)CCCCCCCC [Monomer 1]
P. mirabilis (ATCC29906) [1]
  inhibition of growth at 200 µg/mL: 59.3%
  inhibition of growth at 400 µg/mL: 68.2%
  inhibition of growth at 600 µg/mL: 99.9%
  inhibition of growth at 800 µg/mL: 99.9%
P. mirabilis (ATCC29906) [2]
  Time at which 99.9% of the antibacterial strength is confirmed, Method 1: Within 1 hour
  Time at which 99.9% of the antibacterial strength is confirmed, Method 3: Within 1 hour
[3]
  LD50: ≥ 1000 mg/kg
3T3
  Acute oral toxicity dose (mg/Kg) LD50: 1,708 mg/Kg
[4]
  LD50: ≥ 2000 mg/kg

## C=C(C)C(=O)OCC[N+](CCCCCC)(CCCCCC)CCCCCCCCCC [Monomer 5]
P. mirabilis (ATCC29906) [1]
  inhibition of growth at 200 µg/mL: 99.9%
  inhibition of growth at 400 µg/mL: 99.9%
  inhibition of growth at 600 µg/mL: 99.9%
  inhibition of growth at 800 µg/mL: 99.9%
P. mirabilis (ATCC29906) [2]
  Time at which 99.9% of the antibacterial strength is confirmed, Method 2: Within 1 hour
  Time at which 99.9% of the antibacterial strength is confirmed, Method 4: Within 1 hour
  Time at which 99.9% of the antibacterial strength is confirmed, Method 1: Within 1 hour
  Time at which 99.9% of the antibacterial strength is confirmed, Method 3: Within 1 hour
[3]
  LD50: ≥ 1000 mg/kg
3T3
  Acute oral toxicity dose (mg/Kg) LD50: 1,078 mg/Kg
[4]
  LD50: ≥ 2000 mg/kg

## C=CC(=O)OCC[N+](CCCCCCCCCCCCCC)(CCCCCCCCCCCCCC)CCCCCCCCCCCCCC [Comparative Monomer 2, reference compound]
P. mirabilis (ATCC29906) [1]
  inhibition of growth at 200 µg/mL: 99.9%
  inhibition of growth at 400 µg/mL: 99.9%
  inhibition of growth at 600 µg/mL: 99.9%
  inhibition of growth at 800 µg/mL: 99.9%
P. mirabilis (ATCC29906) [2]
  Time at which 99.9% of the antibacterial strength is confirmed, Method 2: Within 1 hour
  Time at which 99.9% of the antibacterial strength is confirmed, Method 4: Within 1 hour
  Time at which 99.9% of the antibacterial strength is confirmed, Method 1: Within 1 hour
  Time at which 99.9% of the antibacterial strength is confirmed, Method 3: Within 1 hour
[3]
  LD50: 231 mg/kg

## C=CC(=O)OCC[N+](CCCC)(CCCC)CCCCCCCCCCCC [Monomer 3]
P. mirabilis (ATCC29906) [1]
  inhibition of growth at 200 µg/mL: 99.9%
  inhibition of growth at 400 µg/mL: 99.9%
  inhibition of growth at 600 µg/mL: 99.9%
P. mirabilis (ATCC29906) [2]
  Time at which 99.9% of the antibacterial strength is confirmed, Method 2: Within 1 hour
  Time at which 99.9% of the antibacterial strength is confirmed, Method 4: Within 1 hour
  Time at which 99.9% of the antibacterial strength is confirmed, Method 1: Within 1 hour
  Time at which 99.9% of the antibacterial strength is confirmed, Method 3: Within 1 hour
[3]
  LD50: 843 mg/kg
[4]
  LD50: ≥ 2000 mg/kg

## C=C(C)C(=O)OCC[N+](CCCC)(CCCCCCCC)CCCCCCCCCC (centres unmarked) [Monomer 7]
P. mirabilis (ATCC29906) [1]
  inhibition of growth at 200 µg/mL: 99.9%
  inhibition of growth at 400 µg/mL: 99.9%
  inhibition of growth at 600 µg/mL: 99.9%
  inhibition of growth at 800 µg/mL: 99.9%
P. mirabilis (ATCC29906) [2]
  Time at which 99.9% of the antibacterial strength is confirmed, Method 2: Within 1 hour
  Time at which 99.9% of the antibacterial strength is confirmed, Method 4: Within 1 hour
  Time at which 99.9% of the antibacterial strength is confirmed, Method 1: Within 1 hour
  Time at which 99.9% of the antibacterial strength is confirmed, Method 3: Within 1 hour
[3]
  LD50: 998 mg/kg
[4]
  LD50: ≥ 2000 mg/kg

## C=C(C)C(=O)OCC[N+](CCCC)(CCCCCC)CCCCCCCCCC (centres unmarked) [Monomer 6]
P. mirabilis (ATCC29906) [1]
  inhibition of growth at 200 µg/mL: 99.9%
  inhibition of growth at 400 µg/mL: 99.9%
  inhibition of growth at 600 µg/mL: 99.9%
  inhibition of growth at 800 µg/mL: 99.9%
P. mirabilis (ATCC29906) [2]
  Time at which 99.9% of the antibacterial strength is confirmed, Method 2: Within 1 hour
  Time at which 99.9% of the antibacterial strength is confirmed, Method 4: Within 1 hour
  Time at which 99.9% of the antibacterial strength is confirmed, Method 1: Within 1 hour
  Time at which 99.9% of the antibacterial strength is confirmed, Method 3: Within 1 hour
[3]
  LD50: ≥ 1000 mg/kg
3T3
  Acute oral toxicity dose (mg/Kg) LD50: 1,111 mg/Kg
[4]
  LD50: ≥ 2000 mg/kg

## C=CC(=O)OCC[N+](CCCC)(CCCC)CCCCCC [Comparative Monomer 1, reference compound]
P. mirabilis (ATCC29906) [1]
  inhibition of growth at 200 µg/mL: 22.6%
  inhibition of growth at 400 µg/mL: 30.7%
  inhibition of growth at 600 µg/mL: 38.8%
  inhibition of growth at 800 µg/mL: 46.9%
[3]
  LD50: 2360 mg/kg

## C=CC(=O)OCCCC[N+](CCCC)(CCCC)CCCCCCCC [Monomer 9]
P. mirabilis (ATCC29906) [1]
  inhibition of growth at 200 µg/mL: 61.2%
  inhibition of growth at 400 µg/mL: 70%
  inhibition of growth at 600 µg/mL: 99.9%
  inhibition of growth at 800 µg/mL: 99.9%
P. mirabilis (ATCC29906) [2]
  Time at which 99.9% of the antibacterial strength is confirmed, Method 1: Within 1 hour
  Time at which 99.9% of the antibacterial strength is confirmed, Method 3: Within 1 hour
[3]
  LD50: ≥ 1000 mg/kg
3T3
  Acute oral toxicity dose (mg/Kg) LD50: 1,498 mg/Kg
[4]
  LD50: ≥ 2000 mg/kg

## C=CC(=O)OCC[N+](CCCCCCCC)(CCCCCCCC)CCCCCCCC [Monomer 4]
P. mirabilis (ATCC29906) [1]
  inhibition of growth at 200 µg/mL: 99.9%
  inhibition of growth at 400 µg/mL: 99.9%
  inhibition of growth at 600 µg/mL: 99.9%
  inhibition of growth at 800 µg/mL: 99.9%
P. mirabilis (ATCC29906) [2]
  Time at which 99.9% of the antibacterial strength is confirmed, Method 2: Within 1 hour
  Time at which 99.9% of the antibacterial strength is confirmed, Method 4: Within 1 hour
  Time at which 99.9% of the antibacterial strength is confirmed, Method 1: Within 1 hour
  Time at which 99.9% of the antibacterial strength is confirmed, Method 3: Within 1 hour
[3]
  LD50: ≥ 1000 mg/kg
3T3
  Acute oral toxicity dose (mg/Kg) LD50: 1,442 mg/Kg
[4]
  LD50: ≥ 2000 mg/kg

## C=CC(=O)OCC[N+](CCCC)(CCCC)CCCCCCCCCC [Monomer 2]
P. mirabilis (ATCC29906) [1]
  inhibition of growth at 200 µg/mL: 99.9%
  inhibition of growth at 400 µg/mL: 99.9%
  inhibition of growth at 600 µg/mL: 99.9%
  inhibition of growth at 800 µg/mL: 99.9%
P. mirabilis (ATCC29906) [2]
  Time at which 99.9% of the antibacterial strength is confirmed, Method 2: Within 1 hour
  Time at which 99.9% of the antibacterial strength is confirmed, Method 4: Within 1 hour
  Time at which 99.9% of the antibacterial strength is confirmed, Method 1: Within 1 hour
  Time at which 99.9% of the antibacterial strength is confirmed, Method 3: Within 1 hour
[3]
  LD50: ≥ 1000 mg/kg
3T3
  Acute oral toxicity dose (mg/Kg) LD50: 1,369 mg/Kg
[4]
  LD50: ≥ 2000 mg/kg
